Target: T1, h-5-HT6 receptor (Homo sapiens, UniProt P50406)
T1 construct: expressed in transfected cells; host or cells: HEK293 cells (membrane preparation)
Assay: Human 5-HT6 receptor radioligand binding assay ([3H]-LSD, HEK293 membranes)
Conditions: HEK293 membranes, 1 nM [3H]-lysergic acid diethylamide, 3.5 hours at room temperature; read-out: Ki (μM), 5-HT6 Agonist Site Radioligand Binding
Experimental: (iv) Human 5-HT6 Receptor Radioligand Binding Assay
Preparation of Membranes by Ultrasonic Treatment and Differential Centrifugation
Cells from stable clonal cell lines expressing the corresponding receptor (5-HT6) were washed with PBS (without Ca^++, Mg^++) and harvested in PBS with 0.02% EDTA. The cells were collected by centrifugation at 500 g for 10 minutes at 4° C., washed with PBS and centrifuged (500 g, 10 minutes at 4° C.). The pellets were stored at −80° C. until use. For membrane preparation, the thawed cell pellet was resuspended in ice-cold sucrose buffer (0.25 M sucrose, 10 mM HEPES (pH 7.4), 1 mM phenylmethylsulfonyl fluoride (PMSF) in DMSO, 5 μg/ml Pepstatin-A, 3 mM EDTA, 0.025% Bacitracin) and homogenized with a Branson Sonifier W-250 (Settings: Timer 4; Output Control 3; Duty Cycle constant; 2 to 3 cycles). Cell disruption was checked with the aid of a microscope. Remaining unbroken cells were pelleted at 1,000 g for 10 minutes at 4° C. The sucrose buffer supernatant was then centrifuged at 60,000 g for 1 hour at 4° C. (Beckman Ultrazentrifuge XL 80). The pellet was resuspended in 30 mL of ice-cold Tris buffer (20 mM TRIS (pH 7.4), 5 μg/mL Pepstatin A, 0.1 mM PMSF, 3 mM EDTA) by pipetting through a 10 mL serological pipet and centrifuged for 1 hour at 4° C. at 60,000 g. A final resuspension was performed in a small volume of ice-cold Tris buffer (see above) by pressing through a serological pipet followed by ultrasonic treatment with a Branson Sonifier W-250 (Settings: Timer 1; Output Control 3; Duty Cycle constant; 1 cycle). Protein concentration was determined (BCA-Kit; Pierce) and aliquots stored at −80° C. or in liquid nitrogen for long-term storage.
Receptor Binding Experiments
All receptor binding experiments were carried out in the corresponding assay buffer in a total volume of 200 μL in the presence of various concentrations of test compound (10^−5 M to 10^−9 M, tenfold serial dilution, duplicate determinations). The assays were terminated by filtration on polyethylenimine (PEI 0.1% or 0.3%) presoaked Packard Unifilter Plates (GF/C or GF/B) with a Tomtec MachIII U 96 well-plate harvester. After the plates had been dried for 2 hours at 55° C. in a drying chamber scintillation cocktail (BetaPlate Scint; PerkinElmer) was added. Radioactivity was measured in a Microbeta Trilux two hours after the addition of the scintillation mixture.
5-HT6 Receptor Binding Assay
HEK293 cells stably expressing the h-5-HT6 receptor (NCBI Reference Sequence XM 001435) were cultured in RPMI1640 medium supplemented with 25 mM HEPES, 10% fetal calf serum and 1-2 mM glutamine. The membrane preparation was performed as described above. […] On the day of the assay, the membranes were thawed, diluted in assay buffer (50 mM Tris-HCl, 5 mM CaCl2, 0.1% ascorbic acid, 10 μM pargyline, pH 7.4) to a concentration of 8 μg protein/assay and homogenized by gentle vortexing. […] Non-specific binding was defined with 1 μM methiothepin. The binding reaction was carried out for 3.5 hours at room temperature. During the incubation, the plates were shaken on a plate shaker at 100 rpm and terminated by filtration on Packard Unifilter GF/C (0.1% PEI) plates, followed by 2 wash cycles with ice-cold 50 mM Tris-HCl, 5 mM CaCl2.
Data derived from liquid scintillation counting were analyzed by iterative non-linear regression analysis with the use of the Statistical Analysis System (SAS): a program similar to “LIGAND” as described by Munson and Rodbard (Anal. Biochem. 1980, 107, 220-239). Fitting was performed according to formulae described by Feldman (Anal. Biochem. 1972, 48, 317-338). IC50, nH and Ki values were expressed as geometrical mean.
The results of the receptor binding studies are expressed as receptor binding constants Ki(5-HT6) as described herein before, and given in Table 5.

T1 sequence (P50406 whole entry): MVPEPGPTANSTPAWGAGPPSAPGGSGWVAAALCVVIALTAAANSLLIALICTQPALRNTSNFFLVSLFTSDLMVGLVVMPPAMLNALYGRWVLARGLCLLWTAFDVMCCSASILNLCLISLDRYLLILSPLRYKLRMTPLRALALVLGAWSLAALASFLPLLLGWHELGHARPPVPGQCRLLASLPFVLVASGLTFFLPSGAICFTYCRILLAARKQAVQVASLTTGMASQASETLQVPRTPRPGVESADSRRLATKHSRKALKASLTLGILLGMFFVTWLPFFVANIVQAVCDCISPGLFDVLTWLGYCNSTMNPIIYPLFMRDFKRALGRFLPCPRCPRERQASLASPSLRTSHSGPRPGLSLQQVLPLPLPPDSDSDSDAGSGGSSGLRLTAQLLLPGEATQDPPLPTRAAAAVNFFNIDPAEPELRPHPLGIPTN

Ki [µM] | Compound
0.0221 | Cc1ccc(S(=O)(=O)Nc2ccc3c(c2)NC(=O)CC2CNCCN32)cc1 (stereo not shown) [Example 99, 4-methyl-N-(6-oxo-1,2,3,4,4a,5,6,7-octahydropyrazino[1,2-a][1,5]benzodiazepin-9-yl)benzenesulfonamide]
0.0068 | O=C1CC2CNCCN2c2ccc(NS(=O)(=O)c3cccc4ccccc34)cc2N1 (stereo not shown) [Example 124, N-(6-oxo-1,2,3,4,4a,5,6,7-octahydropyrazino[1,2-a][1,5]benzodiazepin-9-yl)napthalene-1-sulfonamide]
0.0234 | O=C1CC2CNCCN2c2ccc(NS(=O)(=O)c3ccccc3C(F)(F)F)cc2N1 (stereo not shown) [Example 126, N-(6-oxo-1,2,3,4,4a,5,6,7-octahydropyrazino[1,2-a][1,5]benzodiazepin-9-yl)-2-(trifluoromethyl)benzenesulfonamide]
0.19 | N#Cc1cccc(S(=O)(=O)Nc2ccc3c(c2)NC(=O)CC2CNCCN32)c1 (stereo not shown) [Example 122, 3-cyano-N-(6-oxo-1,2,3,4,4a,5,6,7-octahydropyrazino[1,2-a][1,5]benzodiazepin-9-yl)benzenesulfonamide]
0.0208 | O=C1CC2CNCCN2c2ccc(NS(=O)(=O)c3ccc(F)cc3)cc2N1 (stereo not shown) [Example 105, 4-fluoro-N-(6-oxo-1,2,3,4,4a,5,6,7-octahydropyrazino[1,2-a][1,5]benzodiazepin-9-yl)benzenesulfonamide]
0.0583 | O=C1CC2CNCCN2c2ccc(NS(=O)(=O)c3c(F)cccc3F)cc2N1 (stereo not shown) [Example 123, 2,6-difluoro-N-(6-oxo-1,2,3,4,4a,5,6,7-octahydropyrazino[1,2-a][1,5]benzodiazepin-9-yl)benzenesulfonamide]
0.0183 | O=C1CC2CNCCN2c2ccc(NS(=O)(=O)c3cccc(OC(F)(F)F)c3)cc2N1 (stereo not shown) [Example 120, N-(6-oxo-1,2,3,4,4a,5,6,7-octahydropyrazino[1,2-a][1,5]benzodiazepin-9-yl)-3-(trifluoromethoxy)benzenesulfonamide]
0.0132 | Cc1cc(C)cc(S(=O)(=O)Nc2ccc3c(c2)NC(=O)CC2CNCCN32)c1 (stereo not shown) [Example 129, 3,5-dimethyl-N-(6-oxo-1,2,3,4,4a,5,6,7-octahydropyrazino[1,2-a][1,5]benzodiazepin-9-yl)benzenesulfonamide]
0.0299 | O=C1CC2CNCCN2c2ccc(NS(=O)(=O)c3ccccc3F)cc2N1 (stereo not shown) [Example 103, 2-fluoro-N-(6-oxo-1,2,3,4,4a,5,6,7-octahydropyrazino[1,2-a][1,5]benzodiazepin-9-yl)benzenesulfonamide]
0.0024 | O=C1CC2CNCCN2c2ccc(NS(=O)(=O)c3ccccc3-c3ccccc3)cc2N1 (stereo not shown) [Example 97, N-(6-oxo-1,2,3,4,4a,5,6,7-octahydropyrazino[1,2-a][1,5]benzodiazepin-9-yl)biphenyl-2-sulfonamide]
0.0596 | O=C1CC2CNCCN2c2ccc(NS(=O)(=O)c3cccc(F)c3)cc2N1 (stereo not shown) [Example 104, 3-fluoro-N-(6-oxo-1,2,3,4,4a,5,6,7-octahydropyrazino[1,2-a][1,5]benzodiazepin-9-yl)benzenesulfonamide]
0.0224 | Cc1ccccc1S(=O)(=O)Nc1ccc2c(c1)NC(=O)CC1CNCCN21 (stereo not shown) [Example 98, 2-methyl-N-(6-oxo-1,2,3,4,4a,5,6,7-octahydropyrazino[1,2-a][1,5]benzodiazepin-9-yl)benzenesulfonamide]
0.026 | COc1ccccc1S(=O)(=O)Nc1ccc2c(c1)NC(=O)CC1CNCCN21 (stereo not shown) [Example 106, 2-methoxy-N-(6-oxo-1,2,3,4,4a,5,6,7-octahydropyrazino[1,2-a][1,5]benzodiazepin-9-yl)benzenesulfonamide]
0.0181 | O=C1CC2CNCCN2c2ccc(NS(=O)(=O)c3ccccc3OC(F)(F)F)cc2N1 (stereo not shown) [Example 130, N-(6-oxo-1,2,3,4,4a,5,6,7-octahydropyrazino[1,2-a][1,5]benzodiazepin-9-yl)-2-(trifluoromethoxy)benzenesulfonamide]
0.0475 | Cc1cccc(S(=O)(=O)Nc2ccc3c(c2)NC(=O)CC2CNCCN32)c1 (stereo not shown) [Example 100, 3-methyl-N-(6-oxo-1,2,3,4,4a,5,6,7-octahydropyrazino[1,2-a][1,5]benzodiazepin-9-yl)benzenesulfonamide]
0.0378 | O=C1CC2CNCCN2c2ccc(NS(=O)(=O)c3c(Cl)cccc3Cl)cc2N1 (stereo not shown) [Example 119, 2,6-dichloro-N-(6-oxo-1,2,3,4,4a,5,6,7-octahydropyrazino[1,2-a][1,5]benzodiazepin-9-yl)benzenesulfonamide]
0.0556 | O=C1CC2CNCCN2c2ccc(NS(=O)(=O)c3cccs3)cc2N1 (stereo not shown) [Example 109, N-(6-oxo-1,2,3,4,4a,5,6,7-octahydropyrazino[1,2-a][1,5]benzodiazepin-9-yl)thiophene-2-sulfonamide]
0.0223 | O=C1CC2CNCCN2c2ccc(NS(=O)(=O)c3cccc(Cl)c3)cc2N1 (stereo not shown) [Example 101, 3-chloro-N-(6-oxo-1,2,3,4,4a,5,6,7-octahydropyrazino[1,2-a][1,5]benzodiazepin-9-yl)benzenesulfonamide]
0.0443 | O=C1CC2CNCCN2c2ccc(NS(=O)(=O)c3ccc(Cl)s3)cc2N1 (stereo not shown) [Example 127, 5-chloro-N-(6-oxo-1,2,3,4,4a,5,6,7-octahydropyrazino[1,2-a][1,5]benzodiazepin-9-yl)thiophene-2-sulfonamide]
0.0092 | O=C1CC2CNCCN2c2ccc(NS(=O)(=O)c3ccc(Cl)cc3)cc2N1 (stereo not shown) [Example 102, 4-chloro-N-(6-oxo-1,2,3,4,4a,5,6,7-octahydropyrazino[1,2-a][1,5]benzodiazepin-9-yl)benzenesulfonamide]
0.022 | COc1cccc(S(=O)(=O)Nc2ccc3c(c2)NC(=O)CC2CNCCN32)c1 (stereo not shown) [Example 107, 3-methoxy-N-(6-oxo-1,2,3,4,4a,5,6,7-octahydropyrazino[1,2-a][1,5]benzodiazepin-9-yl)benzenesulfonamide]
0.621 | N#Cc1ccc(S(=O)(=O)Nc2ccc3c(c2)NC(=O)CC2CNCCN32)cc1 (stereo not shown) [Example 121, 4-cyano-N-(6-oxo-1,2,3,4,4a,5,6,7-octahydropyrazino[1,2-a][1,5]benzodiazepin-9-yl)benzenesulfonamide]
0.0669 | COc1ccc(S(=O)(=O)Nc2ccc3c(c2)NC(=O)CC2CNCCN32)cc1 (stereo not shown) [Example 108, 4-methoxy-N-(6-oxo-1,2,3,4,4a,5,6,7-octahydropyrazino[1,2-a][1,5]benzodiazepin-9-yl)benzenesulfonamide]
0.0156 | Cc1ccc(C)c(S(=O)(=O)Nc2ccc3c(c2)NC(=O)CC2CNCCN32)c1 (stereo not shown) [Example 125, 2,5-dimethyl-N-(6-oxo-1,2,3,4,4a,5,6,7-octahydropyrazino[1,2-a][1,5]benzodiazepin-9-yl)benzenesulfonamide]
0.0043 | O=C1CC2CNCCN2c2ccc(NS(=O)(=O)c3ccc4ccccc4c3)cc2N1 (stereo not shown) [Example 128, N-(6-oxo-1,2,3,4,4a,5,6,7-octahydropyrazino[1,2-a][1,5]benzodiazepin-9-yl)naphthalene-2-sulfonamide]
